Assay results: ChEMBL document CHEMBL1201862, “PubChem BioAssay data set” (2004)
Active and inactive are the calls of the source.

Experiments:
[1] = Luminescence Cell-Based Dose Response HTS to Identify Inhibitors of Luciferase Translation or Activity in H4-C Neuroglioblastoma Cells. [Related pubchem assays: 1813 (Primary HTS), 1827 (Project Summary)]; type: functional
[2] = Luminescence Cell-Based Dose Response HTS to Identify Activators of Luciferase Translation or Activity in H4-C Neuroglioblastoma Cells. [Related pubchem assays: 1829 (Project Summary), 1814 (Primary HTS)]; type: functional
[3] = inhibitors of firefly luciferase expression or activity, dose response, H4 neuroglioma cells, luminescence (AID 1990); type: functional, cell-based
[4] = Luminescence Cell-Based Dose Retest to Confirm Activators of 5'UTR Stem-Loop Driven Alpha-Synuclein mRNA Translation in H4 Neuroglioblastoma Cells. [Related pubchem assays (depositor defined):AID1813, AID1829]; type: functional
[5] = Luminescence Cell-Based Dose Response HTS to Identify Activators of 5'UTR Stem-Loop Driven Prion Protein mRNA Translation in H4-C Neuroglioblastoma Cells. [Related pubchem assays: 1829 (Project Summary), 1814 (Primary HTS)]; type: functional
[6] = Luminescence Cell-Based Dose HTS Response to Identify Inhibitors of 5'UTR Stem-Loop Driven Prion Protein mRNA Translation in H4-C Neuroglioblastoma Cells. [Related pubchem assays (depositor defined):AID1814, AID1827]; type: functional
[7] = Luminescence Cell-Based Dose Response HTS to Identify Inhibitors of 5'UTR Stem-Loop Driven Prion Protein mRNA Translation in H4 Neuroglioblastoma Cells. [Related pubchem assays: 1827 (Project Summary), 1813 (Primary HTS)]; type: functional
[8] = inhibitors of SNCA 5'UTR-driven reporter translation, confirmation, H4 neuroglioma cells, luminescence (AID 1988); type: functional, cell-based
[9] = Luminescence Cell-Based Dose Confirmation HTS to Identify Inhibitors of 5'UTR Stem-Loop Driven Alpha-Synuclein mRNA Translation in H4 Neuroglioblastoma Cells. [Related pubchem assays: 1827 (Project Summary), 1813 (Primary HTS)]; type: functional
[10] = cytotoxicity in HEK-293T cells, dose response, cytotoxicity control for TCR NF-kB inhibitor project, luminescence, T-cell screen hits (AID 489026); type: functional, cell-based;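 also: cells exposed to compound about 14 hours before the viability readout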
Cytochrome P450 2C9 = Cytochrome P450 2C9 (Homo sapiens, UniProt P11712)
Chain of Cytochrome P450 2C9 (P11712 whole entry): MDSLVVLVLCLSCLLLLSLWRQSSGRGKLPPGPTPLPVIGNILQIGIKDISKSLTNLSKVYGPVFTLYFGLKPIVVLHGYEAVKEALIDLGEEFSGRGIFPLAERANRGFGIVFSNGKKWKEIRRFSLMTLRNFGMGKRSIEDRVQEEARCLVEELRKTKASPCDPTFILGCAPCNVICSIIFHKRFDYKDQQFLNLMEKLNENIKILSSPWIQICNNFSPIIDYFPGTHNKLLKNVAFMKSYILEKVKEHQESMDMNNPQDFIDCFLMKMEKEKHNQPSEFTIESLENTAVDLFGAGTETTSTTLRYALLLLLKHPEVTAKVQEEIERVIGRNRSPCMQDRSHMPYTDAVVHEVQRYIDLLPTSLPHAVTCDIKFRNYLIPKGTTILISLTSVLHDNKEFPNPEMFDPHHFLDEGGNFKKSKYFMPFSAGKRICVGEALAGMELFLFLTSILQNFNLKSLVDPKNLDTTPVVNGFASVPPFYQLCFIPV

T-cell = test: inhibitors of CD8+ T cell–vesicle binding, dose response, mouse 2C CD8+ T cells, flow cytometry (AID 485284); type: functional
Coagulation factor XII = target: T1, Coagulation factor XII (Homo sapiens, UniProt P00748); test: Factor XIIa Dose Response Confirmation from Single Well HTS. [Related pubchem assays (depositor defined):AID701]; type: functional
T1 sequence (P00748 whole entry): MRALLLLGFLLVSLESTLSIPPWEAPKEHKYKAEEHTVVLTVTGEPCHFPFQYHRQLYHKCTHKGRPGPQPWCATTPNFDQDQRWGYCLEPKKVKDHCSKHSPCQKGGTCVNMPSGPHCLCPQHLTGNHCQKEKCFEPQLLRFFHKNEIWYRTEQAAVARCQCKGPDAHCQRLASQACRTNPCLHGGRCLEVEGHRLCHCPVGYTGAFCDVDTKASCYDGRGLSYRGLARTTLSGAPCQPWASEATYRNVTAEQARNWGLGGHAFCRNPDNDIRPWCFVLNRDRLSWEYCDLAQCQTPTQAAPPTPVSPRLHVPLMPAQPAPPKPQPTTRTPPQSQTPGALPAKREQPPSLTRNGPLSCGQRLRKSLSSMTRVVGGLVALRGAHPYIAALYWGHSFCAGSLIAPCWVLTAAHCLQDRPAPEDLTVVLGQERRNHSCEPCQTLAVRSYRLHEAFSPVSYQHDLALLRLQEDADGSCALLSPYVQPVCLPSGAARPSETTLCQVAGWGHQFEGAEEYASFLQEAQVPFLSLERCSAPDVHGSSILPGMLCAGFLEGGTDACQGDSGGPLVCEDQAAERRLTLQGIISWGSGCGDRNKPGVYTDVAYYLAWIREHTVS

HEK293 [11] = test: NOD1 signaling inhibitors, primary screen, cell-based, luminescence, uHTS (AID 1578); type: functional; details: Homo sapiens
HEK293 [12] = test: cells; type: functional, cell-based; details: Homo sapiens
HEK293 [13] = test: cells; type: functional, cell-based; details: Homo sapiens; remark: listed apart in the source
[14] = target: T2, Nucleotide-binding oligomerization domain-containing protein 2 (Homo sapiens, UniProt Q9HC29); test: NOD2 signaling inhibitors, cell-based, luminescence, uHTS, HEK293 (AID 1566); type: functional
T2 sequence (Q9HC29 whole entry, the tested form may be a part): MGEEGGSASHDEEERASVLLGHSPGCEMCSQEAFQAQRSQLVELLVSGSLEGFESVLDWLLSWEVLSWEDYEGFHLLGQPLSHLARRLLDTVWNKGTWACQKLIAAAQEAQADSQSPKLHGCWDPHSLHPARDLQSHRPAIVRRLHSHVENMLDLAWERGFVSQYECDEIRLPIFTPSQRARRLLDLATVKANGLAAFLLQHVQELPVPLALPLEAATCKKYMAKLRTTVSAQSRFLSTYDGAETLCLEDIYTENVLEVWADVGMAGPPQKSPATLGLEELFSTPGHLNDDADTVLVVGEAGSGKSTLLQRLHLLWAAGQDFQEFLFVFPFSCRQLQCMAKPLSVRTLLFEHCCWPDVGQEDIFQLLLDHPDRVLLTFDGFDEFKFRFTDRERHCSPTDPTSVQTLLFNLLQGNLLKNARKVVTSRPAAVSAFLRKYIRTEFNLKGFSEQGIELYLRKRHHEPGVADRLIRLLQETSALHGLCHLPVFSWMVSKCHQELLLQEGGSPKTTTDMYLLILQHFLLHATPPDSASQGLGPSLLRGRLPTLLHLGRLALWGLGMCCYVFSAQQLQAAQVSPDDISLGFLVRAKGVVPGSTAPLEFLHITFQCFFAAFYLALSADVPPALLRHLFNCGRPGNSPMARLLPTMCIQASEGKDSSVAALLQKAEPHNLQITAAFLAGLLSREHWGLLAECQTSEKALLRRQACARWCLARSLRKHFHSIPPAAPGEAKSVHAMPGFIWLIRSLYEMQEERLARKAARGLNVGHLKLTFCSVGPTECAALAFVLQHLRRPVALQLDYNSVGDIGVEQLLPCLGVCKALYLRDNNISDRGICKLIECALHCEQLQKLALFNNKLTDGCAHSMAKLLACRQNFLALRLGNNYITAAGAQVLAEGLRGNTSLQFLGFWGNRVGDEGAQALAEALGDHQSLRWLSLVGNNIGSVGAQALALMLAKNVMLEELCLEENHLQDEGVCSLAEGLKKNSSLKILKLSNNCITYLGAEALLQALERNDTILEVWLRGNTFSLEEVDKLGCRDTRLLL

HEK293 [15] = test: NOD2 signaling inhibitors in MDP-stimulated cells, cell-based, uHTS, luminescence (AID 2001); type: functional; details: Homo sapiens
HEK293 [16] = test: cells; type: functional, cell-based; details: Homo sapiens; remark: listed apart in the source
Tumor necrosis factor = Tumor necrosis factor (Homo sapiens, UniProt P01375); test: TNFa-triggered NF-kB activation inhibitors, SAR follow-up, cell-based, revised (AID 2337); type: functional
Chain of Tumor necrosis factor (P01375 whole entry, the tested form may be a part): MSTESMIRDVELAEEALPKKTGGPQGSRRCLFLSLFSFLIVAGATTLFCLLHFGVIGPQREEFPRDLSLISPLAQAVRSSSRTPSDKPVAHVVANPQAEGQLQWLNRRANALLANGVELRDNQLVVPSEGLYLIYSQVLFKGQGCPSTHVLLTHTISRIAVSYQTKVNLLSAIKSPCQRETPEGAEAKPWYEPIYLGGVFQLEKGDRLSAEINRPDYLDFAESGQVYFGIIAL

[17] = target: Nucleotide-binding oligomerization domain-containing protein 1 (Homo sapiens, UniProt Q9Y239); test: NOD1 signaling inhibitors, SAR follow-up, revised (AID 2333); type: functional
Chain of Nucleotide-binding oligomerization domain-containing protein 1 (Q9Y239 whole entry, the tested form may be a part): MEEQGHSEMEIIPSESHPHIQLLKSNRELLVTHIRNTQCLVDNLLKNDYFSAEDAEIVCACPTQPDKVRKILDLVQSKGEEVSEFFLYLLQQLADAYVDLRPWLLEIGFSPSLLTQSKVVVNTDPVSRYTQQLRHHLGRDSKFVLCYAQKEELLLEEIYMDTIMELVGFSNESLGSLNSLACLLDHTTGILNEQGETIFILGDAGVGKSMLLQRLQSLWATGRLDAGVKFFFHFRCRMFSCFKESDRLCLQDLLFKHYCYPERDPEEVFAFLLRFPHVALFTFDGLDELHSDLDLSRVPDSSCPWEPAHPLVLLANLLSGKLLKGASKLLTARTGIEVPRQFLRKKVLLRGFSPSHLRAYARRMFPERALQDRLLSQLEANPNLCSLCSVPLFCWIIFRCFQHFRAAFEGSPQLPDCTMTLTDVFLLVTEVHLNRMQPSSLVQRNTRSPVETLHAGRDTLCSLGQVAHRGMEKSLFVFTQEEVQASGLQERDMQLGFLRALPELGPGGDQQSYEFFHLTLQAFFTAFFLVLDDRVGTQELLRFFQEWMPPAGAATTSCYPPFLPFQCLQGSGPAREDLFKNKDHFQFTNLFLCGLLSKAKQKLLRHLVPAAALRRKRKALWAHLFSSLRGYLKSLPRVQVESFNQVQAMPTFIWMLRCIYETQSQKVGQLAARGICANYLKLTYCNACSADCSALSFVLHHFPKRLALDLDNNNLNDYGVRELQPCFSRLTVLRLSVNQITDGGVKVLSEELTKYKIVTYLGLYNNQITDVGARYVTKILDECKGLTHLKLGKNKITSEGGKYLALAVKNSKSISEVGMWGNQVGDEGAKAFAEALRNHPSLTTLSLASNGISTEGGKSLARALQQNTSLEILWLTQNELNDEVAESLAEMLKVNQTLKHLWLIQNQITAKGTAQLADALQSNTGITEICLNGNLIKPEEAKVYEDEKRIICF

[18] = target: T2, Nucleotide-binding oligomerization domain-containing protein 2; test: PubChem AID 2334; type: functional
HEK293 [19] = test: cells; details: Homo sapiens

O=C(COc1ccccc1-c1ccccc1)N/N=C/c1cccc2ccccc12
EC50 [1]: 0.85 µM (active) | EC50 [2]: 0.921 µM (inconclusive) | EC50 [3]: 11.5 µM (active) | EC50 [4]: 1.84 µM (inconclusive) | EC50 [5]: 0.695 µM (inconclusive) | EC50 [6]: 1.76 µM (active) | EC50 [7]: > 120 µM (not active) | EC50 [8]: < 0.195 µM (active) | EC50 [9]: 1.74 µM (active) | IC50 [10]: > 80 µM (inactive) | AC50 (Cytochrome P450 2C9): 20 µM (inconclusive)

CCC(C(=O)Nc1ccccc1)c1ccccc1 (stereo not drawn)
EC50 (T-cell): 0.0882 µM (active)

CC1(C)c2ssc(=S)c2-c2ccccc2N1C(=O)c1ccco1
IC50 (Coagulation factor XII): > 50 µM (inactive)

Cc1cc(Cl)ccc1OCC(=O)Nc1ccccc1NS(=O)(=O)c1cccs1
EC50 (HEK293 [11]): 5.15 µM (active) | IC50 (HEK293 [12]): > 20 µM (inactive) | IC50 (HEK293 [13]): > 20 µM (inactive) | EC50 [14]: 6.8 µM (active) | IC50 (HEK293 [15]): 15.8 µM (inactive) | IC50 (HEK293 [16]): > 20 µM (inactive) | IC50 (Tumor necrosis factor): 12.3 µM (active) | IC50 [17]: 4.55 µM (active) | IC50 [18]: 8.21 µM (active) | IC50 (HEK293 [19]): > 20 µM (inactive)
